Assay results as given in patent publication US20100104567A1, “PHARMACEUTICAL COMPOSITION” (KYOWA HAKKO KIRIN CO., LTD., priority 2007, published 2010).
Where two headings read alike, the source gives them in different places.

How the values were obtained:
[1] = test system: human renal cancer Caki-1 cells; experiment: Antitumor effect of Flt-3 inhibitor and sunitinib in mouse models transplanted with Caki-1 cells; conditions: day 18; BALB/cAJcl-nu mice, s.c. Caki-1 tumor pieces; Compound 9 50 mg/kg oral twice a day days 0-4; sunitinib 40 mg/kg oral twice a day x 5 days (alone days 0-4, combined days 7-11)
[2] = test system: human pancreatic cancer MIA-Paca-2 cells; experiment: Antitumor effect of Flt-3 inhibitor and cetuximab in mouse models transplanted with MIA-Paca-2 cells; assay type: in vivo; conditions: day 24; scid mice, s.c. MIA-PaCa-2; Compound 9 50 mg/kg oral twice a day x 5 days; cetuximab 2.5 mg/head i.v. days 0, 3, 6, 9, 12
[3] = test system: human pancreatic cancer MIA-Paca-2 cells; experiment: Antitumor effect of Flt-3 inhibitor and gemcitabine in mouse models transplanted with MIA-Paca-2 cells; assay type: in vivo; conditions: day 24; scid mice, s.c. MIA-PaCa-2; Compound 9 25 mg/kg oral twice a day x 5 days; gemcitabine 60 mg/kg i.v. days 0, 3, 7, 10
Method: [formula] […] A. […] B. […] C. Gemcitabine alone group: 60 mg/kg (once a day/days zero, 3, 7, and 10 after the start of administration) D.

[4] = test system: human colon cancer Colo205 cells; experiment: Antitumor effect of Flt-3 inhibitor and 5-fluorouracil (5-FU) in mouse models transplanted with Colo205 cells; assay type: in vivo; conditions: day 7; BALB/cAJcl-nu mice, s.c. Colo205; Compound 9 20 mg/kg oral twice a day x 5 days; 5-FU 10 mg/kg i.v. once a day x 5 days
[5] = test system: human colon cancer Colo205 cells; experiment: Antitumor effect of Flt-3 inhibitor and irinotecan in mouse models transplanted with Colo205 cells; assay type: in vivo; conditions: day 11; BALB/cAJcl-nu mice, s.c. Colo205; Compound 9 20 mg/kg oral twice a day x 5 days; irinotecan 67 mg/kg i.v. days 0 and 3
Method: [formula] […] Irinotecan was suspended in physiological saline at a concentration of 6.7 mg/mL. […] A. […] B. […] C. Irinotecan alone group: 67 mg/kg (once a day/days zero and 3 after the start of administration) D.

[6] = test system: human acute myeloid leukemia MOLM-13 cells; experiment: Antitumor effect of Flt-3 inhibitor and Hsp90 inhibitor in mouse models transplanted with MOLM-13 cells; assay type: in vivo; conditions: day 7; scid mice, s.c. MOLM-13; Compound P 12.5 mg/kg i.v. twice a day x 5 days; Compound 9 10 mg/kg oral twice a day x 5 days
[7] = test system: human acute myeloid leukemia HL-60 cells; experiment: Antitumor effect of Flt-3 inhibitor and daunorubicin in mouse models transplanted with HL-60 cells; assay type: in vivo; conditions: day 17; scid mice, s.c. HL-60; Compound 9 20 mg/kg oral twice a day x 14 days; daunorubicin 2.5 mg/kg i.v. once a day x 3 days
Method: B. Compound 9 alone group: 20 mg/kg (twice a day×14 days)
C. Daunorubicin alone group: 2.5 mg/kg (once a day×3 days)
D. Compound 9+daunorubicin: 20 mg/kg (twice a day×14 days) for Compound 9, and 2.5 mg/kg (once a day×3 days) for daunorubicin

[8] = test system: human renal cancer Caki-1 cells; conditions: day 10; BALB/cAJcl-nu mice, s.c. Caki-1 tumor pieces; Compound 9 25 mg/kg oral twice a day x 5 days; erlotinib 50 mg/kg oral once a day x 5 days
[9] = test system: human acute myeloid leukemia MOLM-13 cells; experiment: Antitumor effect of Flt-3 inhibitor and cytarabine in mouse models transplanted with MOLM-13 cells; conditions: day 14; scid mice, s.c. MOLM-13; Compound 9 5 mg/kg oral twice a day x 14 days; cytarabine 75 mg/kg i.v. once a day x 5 days

## CCN(CC)CCNC(=O)c1c(C)[nH]c(/C=C2\C(=O)Nc3ccc(F)cc32)c1C [Sunitinib, reference compound]
[1]
  T/C (V/V0 of group divided by V/V0 of negative control group): 0.62

## O=C(c1ccc(/C=C/c2n[nH]c3ccccc23)cc1)N1CCNCC1 [Compound 9]
[2]
  T/C (V/V0 of group divided by V/V0 of negative control group): 0.59
[3]
  T/C (V/V0 of group divided by V/V0 of negative control group): 0.84
[4]
  T/C (V/V0 of group divided by V/V0 of negative control group): 0.68
[5]
  T/C (V/V0 of group divided by V/V0 of negative control group): 0.75
[6]
  T/C (V/V0 of group divided by V/V0 of negative control group): 0.29
[7]
  T/C (V/V0 of group divided by V/V0 of negative control group): 0.42
[8]
  T/C (V/V0 of group divided by V/V0 of negative control group): 0.71
[1]
  T/C (V/V0 of group divided by V/V0 of negative control group): 0.50
[9]
  T/C (V/V0 of group divided by V/V0 of negative control group): 0.29

## Nc1ccn([C@@H]2O[C@H](CO)[C@@H](O)[C@@H]2O)c(=O)n1 [Cytarabine, reference compound]
[9]
  T/C (V/V0 of group divided by V/V0 of negative control group): 0.62

## CCc1c(O)cc(O)c(C(=O)c2ccc(OCCN3CCOCC3)c(OC)c2)c1CC(=O)N(CCOC)CCOC [Compound P, 2-{2-ethyl-3,5-dihydroxy-6-[3-methoxy-4-(2-morpholinoethoxy)benzoyl]pheny1]-N,N-bis(2-methoxyethyl)acetamide, reference compound]
[6]
  T/C (V/V0 of group divided by V/V0 of negative control group): 0.53

## CCc1c2c(nc3ccc(OC(=O)N4CCC(N5CCCCC5)CC4)cc13)-c1cc3c(c(=O)n1C2)COC(=O)[C@]3(O)CC [Irinotecan, reference compound]
[5]
  T/C (V/V0 of group divided by V/V0 of negative control group): 0.65

## Nc1ccn([C@@H]2O[C@H](CO)[C@@H](O)C2(F)F)c(=O)n1 [Gemcitabine, reference compound]
[3]
  T/C (V/V0 of group divided by V/V0 of negative control group): 0.57

## COc1cccc2c1C(=O)c1c(O)c3c(c(O)c1C2=O)C[C@@](O)(C(C)=O)C[C@@H]3O[C@H]1C[C@H](N)[C@H](O)[C@H](C)O1 [Daunorubicin, reference compound]
[7]
  T/C (V/V0 of group divided by V/V0 of negative control group): 0.61

## O=c1[nH]cc(F)c(=O)[nH]1 [Compound 5-FU, 5-fluorouracil, reference compound]
[4]
  T/C (V/V0 of group divided by V/V0 of negative control group): 0.81

## C#Cc1cccc(Nc2ncnc3cc(OCCOC)c(OCCOC)cc23)c1 [Erlotinib, reference compound]
[8]
  T/C (V/V0 of group divided by V/V0 of negative control group): 0.89
